Source: patent publication US20090069317A1, “Insecticidal Methods Using 3-Amino-1,2-Benzisothiazole Derivatives” (BASF SE, priority 2005, published 2009)

Tests used:
[1] = test system: Cotton Aphid (Aphis gossypii); assay: Cotton aphid (Aphis gossypii) cotyledon dip test, mortality; assay type: in vivo; conditions: 120 h, cotton cotyledons dipped, mortality counts after 5 days, read-out: mortality in comparison with untreated controls
Description: B.1 Cotton Aphid (Aphis gossypii)
(§1) The active compounds were formulated in 50:50 acetone:water and 100 ppm Kinetic® surfactant.
Cotton plants at the cotyledon stage (one plant per pot) were infested by placing a heavily infested leaf from the main colony on top of each cotyledon. The aphids were allowed to transfer to the host plant overnight, and the leaf used to transfer the aphids was removed. The cotyledons were dipped in the test solution and allowed to dry. After 5 days, mortality counts were made.

[2] = test system: Green Peach Aphid (Myzus Persicae); assay: Green peach aphid (Myzus persicae) pepper leaf dip test, mortality; assay type: in vivo; conditions: foliar, 120 h, pepper plant leaves dipped, aphid mortality after 5 days, read-out: mortality in comparison with untreated controls
Description: B.2 Green Peach Aphid (Myzus Persicae)
as §1
Pepper plants in the 2nd leaf-pair stage (variety ‘California Wonder’) were infested with approximately 40 laboratory-reared aphids by placing infested leaf sections on top of the test plants. The leaf sections were removed after 24 hr. The leaves of the intact plants were dipped into gradient solutions of the test compound and allowed to dry. Test plants were maintained under fluorescent light (24 hour photoperiod) at about 25° C. and 20-40% relative humidity. Aphid mortality on the treated plants, relative to mortality on check plants, was determined after 5 days.

CC(C)N(C)C1=NS(=O)(=O)c2cccc(OC(F)F)c21 [Compound 41]
mortality at 300 ppm [1]: > 86%
mortality at 300 ppm [2]: > 86%

COC(C)CN(C)C1=NS(=O)(=O)c2cccc(Cl)c21 (stereo not shown) [Compound 18]
mortality at 300 ppm [1]: > 86%

CCN(CC)C1=NS(=O)(=O)c2c(F)ccc(OC)c21 [Compound 89]
mortality at 300 ppm [1]: > 86%
mortality at 300 ppm [2]: > 86%

CON(C)C1=NS(=O)(=O)c2cccc(F)c21 [Compound 100]
mortality at 300 ppm [1]: > 86%

CCCN(CC1CC1)C1=NS(=O)(=O)c2cccc(F)c21 [Compound 62]
mortality at 300 ppm [1]: > 86%
mortality at 300 ppm [2]: > 86%

CCN(C)C1=NS(=O)(=O)c2c(F)ccc(OC)c21 [Compound 91]
mortality at 300 ppm [1]: > 86%
mortality at 300 ppm [2]: > 86%

COc1ccc(F)c2c1C(N(C)C)=NS2(=O)=O [Compound 90]
mortality at 300 ppm [1]: > 86%

C#CC(C)N(C1=NS(=O)(=O)c2cccc(Cl)c21)C(C)C (stereo not shown) [Compound 14]
mortality at 300 ppm [1]: > 86%

CCN(C)c1nsc2cccc(OC)c12 [Compound 81]
mortality at 300 ppm [1]: > 86%
mortality at 300 ppm [2]: > 86%

CCON(C)C1=NS(=O)(=O)c2cccc(OC(F)F)c21 [Compound 110]
mortality at 300 ppm [1]: > 86%
mortality at 300 ppm [2]: > 86%

CCN(CC)c1n[s+]([O-])c2cccc(OC)c12 (stereo not shown) [Compound 95]
mortality at 300 ppm [1]: > 86%
mortality at 300 ppm [2]: > 86%

CC(C)N(C)C1=NS(=O)(=O)c2cccc(Cl)c21 [Compound 52]
mortality at 300 ppm [1]: > 86%

CCN(CC)C1=NS(=O)(=O)c2cccc(OC)c21 [Compound 27]
mortality at 300 ppm [1]: > 86%
mortality at 300 ppm [2]: > 86%

CCN(CC)c1nsc2cccc(OC)c12 [Compound 76]
mortality at 300 ppm [1]: > 86%
mortality at 300 ppm [2]: > 86%

CC(C)CN(C)c1n[s+]([O-])c2cccc(Cl)c12 (stereo not shown) [Compound 77]
mortality at 300 ppm [1]: > 86%

CCN(C)C1=NS(=O)(=O)c2cccc(OC(F)F)c21 [Compound 34]
mortality at 300 ppm [1]: > 86%
mortality at 300 ppm [2]: > 86%

CC(C)CN(C)C1=NS(=O)(=O)c2cccc(F)c21 [Compound 70]
mortality at 300 ppm [1]: > 86%

C#CCON(C1=NS(=O)(=O)c2cccc(Cl)c21)C(C)C [Compound 105]
mortality at 300 ppm [1]: > 86%

CCN(CC)c1nsc2ccc(I)c(Cl)c12 [Compound 61]
mortality at 300 ppm [1]: > 86%

CCN(CC)c1nsc2cccc(Cl)c12 [Compound 58]
mortality at 300 ppm [1]: > 86%
mortality at 300 ppm [2]: > 86%

CCN(CC(F)(F)F)C1=NS(=O)(=O)c2cccc(Cl)c21 [Compound 13]
mortality at 300 ppm [1]: > 86%

C=CCN(C)c1nsc2cccc(Cl)c12 [Compound 45]
mortality at 300 ppm [1]: > 86%

C=CCN(C)C1=NS(=O)(=O)c2cccc(F)c21 [Compound 69]
mortality at 300 ppm [1]: > 86%

CN(CC(F)(F)F)C1=NS(=O)(=O)c2cccc(Cl)c21 [Compound 56]
mortality at 300 ppm [1]: > 86%

CCCN(C)C1=NS(=O)(=O)c2cccc(F)c21 [Compound 68]
mortality at 300 ppm [1]: > 86%

O=S1(=O)N=C(N2CCCC2)c2c(Cl)cccc21 [Compound 1]
mortality at 300 ppm [1]: > 86%

COc1cccc2c1c(N(C)CC(C)C)n[s+]2[O-] (stereo not shown) [Compound 84]
mortality at 300 ppm [1]: > 86%

C#CCN(OCC)C1=NS(=O)(=O)c2cccc(Cl)c21 [Compound 107]
mortality at 300 ppm [1]: > 86%

CN(C)C1=NS(=O)(=O)c2cccc(OC(F)F)c21 [Compound 32]
mortality at 300 ppm [1]: > 86%
mortality at 300 ppm [2]: > 86%

COc1cccc2snc(N(C)C(C)C)c12 [Compound 82]
mortality at 300 ppm [1]: > 86%
mortality at 300 ppm [2]: > 86%

CCN(C1=NS(=O)(=O)c2cccc(OC(F)F)c21)C(C)C [Compound 33]
mortality at 300 ppm [1]: > 86%
mortality at 300 ppm [2]: > 86%

CN(C)C1=NS(=O)(=O)c2cccc(Cl)c21 [Compound 2]
mortality at 300 ppm [1]: > 86%
mortality at 300 ppm [2]: > 86%

CN(c1nsc2cccc(Cl)c12)C1CCCC1 [Compound 93]
mortality at 300 ppm [1]: > 86%
mortality at 300 ppm [2]: > 86%

COc1cccc2snc(N(C)Cc3ccccc3)c12 [Compound 92]
mortality at 300 ppm [1]: > 86%
mortality at 300 ppm [2]: > 86%

COc1cccc2c1C(N(C)C)=NS2(=O)=O [Compound 54]
mortality at 300 ppm [1]: > 86%

CC(C)ON(C)C1=NS(=O)(=O)c2cccc(Cl)c21 [Compound 102]
mortality at 300 ppm [1]: > 86%

CC(C)CN(C)c1nsc2cccc(Cl)c12 [Compound 44]
mortality at 300 ppm [1]: > 86%

CC(C)N(C1=NS(=O)(=O)c2cccc(OC(F)F)c21)C1CC1 [Compound 35]
mortality at 300 ppm [1]: > 86%

CCN(C)C1=NS(=O)(=O)c2cccc(F)c21 [Compound 64]
mortality at 300 ppm [1]: > 86%
mortality at 300 ppm [2]: > 86%

CCON(CC)C1=NS(=O)(=O)c2cccc(OC(F)F)c21 [Compound 112]
mortality at 300 ppm [1]: > 86%
mortality at 300 ppm [2]: > 86%

CC(C)N(C)C1=NS(=O)(=O)c2cccc(F)c21 [Compound 73]
mortality at 300 ppm [1]: > 86%
mortality at 300 ppm [2]: > 86%

C#CCN(C1=NS(=O)(=O)c2cccc(OC)c21)C(C)C [Compound 29]
mortality at 300 ppm [1]: > 86%

CC(C)CN(C)C1=NS(=O)(=O)c2cccc(OC(F)F)c21 [Compound 42]
mortality at 300 ppm [1]: > 86%
mortality at 300 ppm [2]: > 86%

C#CCN(C)C1=NS(=O)(=O)c2cccc(F)c21 [Compound 66]
mortality at 300 ppm [1]: > 86%

C=CCN(C)C1=NS(=O)(=O)c2cccc(OC(F)F)c21 [Compound 40]
mortality at 300 ppm [1]: > 86%
mortality at 300 ppm [2]: > 86%

CCC(C)N(O)C1=NS(=O)(=O)c2cccc(Cl)c21 (stereo not shown) [Compound 99]
mortality at 300 ppm [1]: > 86%

CCON(C1=NS(=O)(=O)c2cccc(OC(F)F)c21)C(C)C [Compound 111]
mortality at 300 ppm [1]: > 86%
mortality at 300 ppm [2]: > 86%

CN(C)c1n[s+]([O-])c2cccc(Cl)c12 (stereo not shown) [Compound 78]
mortality at 300 ppm [1]: > 86%
mortality at 300 ppm [2]: > 86%

CCN(C)c1nsc2cccc(F)c12 [Compound 79]
mortality at 300 ppm [1]: > 86%

COc1cccc2c1C(N1CCOCC1)=NS2(=O)=O [Compound 26]
mortality at 300 ppm [1]: > 86%

CCCN(C)C1=NS(=O)(=O)c2cccc(OC(F)F)c21 [Compound 38]
mortality at 300 ppm [1]: > 86%
mortality at 300 ppm [2]: > 86%

COC(C)CN(C)c1nsc2cccc(Cl)c12 (stereo not shown) [Compound 57]
mortality at 300 ppm [1]: > 86%
mortality at 300 ppm [2]: > 86%

CCN(C)c1n[s+]([O-])c2cccc(OC)c12 (stereo not shown) [Compound 85]
mortality at 300 ppm [1]: > 86%
mortality at 300 ppm [2]: > 86%

COc1ccc(F)c2c1C(N(C)CC#N)=NS2(=O)=O [Compound 96]
mortality at 300 ppm [1]: > 86%
mortality at 300 ppm [2]: > 86%

C#CCON(C)C1=NS(=O)(=O)c2cccc(Cl)c21 [Compound 103]
mortality at 300 ppm [1]: > 86%

COC(CN(C)C1=NS(=O)(=O)c2cccc(Cl)c21)OC [Compound 17]
mortality at 300 ppm [1]: > 86%

CCN(CC)C1=NS(=O)(=O)c2cccc(F)c21 [Compound 65]
mortality at 300 ppm [1]: > 86%

O=S1(=O)N=C(N(O)Cc2ccccc2)c2c(Cl)cccc21 [Compound 104]
mortality at 300 ppm [1]: > 86%

COc1c(Br)ccc2snc(N(C)C)c12 [Compound 48, (5-Bromo-4-methoxy-benzo[d]isothiazol-3-yl)-dimethyl-amine]
mortality at 300 ppm [1]: > 86%
mortality at 300 ppm [2]: > 86%

CC(C)CN(C)C1=NS(=O)(=O)c2cccc(Cl)c21 [Compound 22, (4-Chloro-1,1-dioxo-1H-1λ^6-benzo[d]isothiazol-3-yl)-isobutyl-methyl-amine]
mortality at 300 ppm [1]: > 86%

CN(CC(F)(F)F)C1=NS(=O)(=O)c2cccc(OC(F)F)c21 [Compound 53]
mortality at 300 ppm [1]: > 86%
mortality at 300 ppm [2]: > 86%

CCN(C)c1nsc2ccc(I)c(Cl)c12 [Compound 60]
mortality at 300 ppm [1]: > 86%

COC(CN(C)c1nsc2cccc(Cl)c12)OC [Compound 46]
mortality at 300 ppm [1]: > 86%

COc1cccc2c1C(N(C(C)C)C1CC1)=NS2(=O)=O [Compound 55]
mortality at 300 ppm [1]: > 86%

CCCN(C)c1nsc2cccc(Cl)c12 [Compound 87]
mortality at 300 ppm [1]: > 86%
mortality at 300 ppm [2]: > 86%

CC(C)N(O)C1=NS(=O)(=O)c2cccc(Cl)c21 [Compound 98]
mortality at 300 ppm [1]: > 86%
mortality at 300 ppm [2]: > 86%

CN(C)C1=NS(=O)(=O)c2cccc(F)c21 [Compound 63]
mortality at 300 ppm [1]: > 86%

C#CCN(C1=NS(=O)(=O)c2cccc(F)c21)C(C)C [Compound 72]
mortality at 300 ppm [1]: > 86%

CCN(C)c1nsc2cccc(Cl)c12 [Compound 51]
mortality at 300 ppm [1]: > 86%
mortality at 300 ppm [2]: > 86%

COc1cccc2c1c(N(C)C)n[s+]2[O-] (stereo not shown) [Compound 94]
mortality at 300 ppm [1]: > 86%
mortality at 300 ppm [2]: > 86%

C#CCN(C)C1=NS(=O)(=O)c2cccc(Cl)c21 [Compound 21]
mortality at 300 ppm [1]: > 86%

CC(C)ON(C1=NS(=O)(=O)c2cccc(Cl)c21)C(C)C [Compound 101]
mortality at 300 ppm [1]: > 86%

C=CCN(C)C1=NS(=O)(=O)c2cccc(Cl)c21 [Compound 20]
mortality at 300 ppm [1]: > 86%

CCCN(CCC)C1=NS(=O)(=O)c2cccc(F)c21 [Compound 67]
mortality at 300 ppm [1]: > 86%

COC(OC)C(C)N(C)C1=NS(=O)(=O)c2cccc(Cl)c21 (stereo not shown) [Compound 16]
mortality at 300 ppm [1]: > 86%

CC(C)N(C1=NS(=O)(=O)c2cccc(F)c21)C1CC1 [Compound 71]
mortality at 300 ppm [1]: > 86%

CCON(CC)C1=NS(=O)(=O)c2cccc(Cl)c21 [Compound 106]
mortality at 300 ppm [1]: > 86%

C=CCN(CC=C)C1=NS(=O)(=O)c2cccc(Cl)c21 [Compound 10]
mortality at 300 ppm [1]: > 86%
